According to patent US7691567B2, “Methods and compositions relating to fortilin, an anti-apoptotic molecule, and modulators of fortilin” (Board of Regents, the University of Texas System, priority 2000, dated 2010):
“Also recorded” adds a separate entry of the source.

Tests used:
[1] = system: HeLa cells; test: Cell death assay: etoposide-induced apoptosis in transfected HeLa cells (apoptotic index); assay type: cell-based
Experimental: Cell death assay: The experiment was performed in duplicate and repeated at least three times. A total of […] HeLa cells were seeded in each well of a 4-well Lab-Teck™ chamber slides (Nalge Nunc International), and transfected with pFLAG containing Fortilin or other control cDNAs, using FuGENE6 (Roche). Twenty-four hours after the transfection, the cells were challenged by 5 μg/mL etoposide for 12 hours. Cells were stained for the FLAG-epitope using anti-FLAG antibody (M2, Sigma Co) and anti-mouse IgG conjugated to Rhodamine Red X (Jackson ImmunoResearch Laboratories). The nuclei were stained with DAPI (4,6-Diamidino-2-phenylindole, Sigma Co). Cells were then examined under a Zeiss AXIOSKOP fluorescent microscope (Carl Zeiss Ltd.), using appropriate filter sets. Cells that emitted red fluorescence were evaluated for their nuclear morphology. Condensed or fragmented nuclei were counted as apoptotic. An apoptotic index was then calculated as the number of red cells with apoptotic nuclear morphology divided by the number of total red cells counted and multiplied by 100.
Statistical analysis: For the analysis of statistical significance of apoptotic indices among cells transfected with different plasmids, Dunnett's T tests were performed. In all cases, the confidence intervals were 0.95 with the alpha value of 0.05. For the statistical evaluation of the significant linear trend between the amount of plasmids used for the transfection and apoptotic indices, ANOVA (Analysis of Variance) regression analysis was employed. […] For the analysis of statistical significance of possible correlation between the degree of malignancy and the indices of Fortilin immunoreactivity, Dunnett's multiple range tests were performed.

[2] = system: caspase 3-like activity; test: Assay of caspase 3-like activity in U2OS stable transfectants (Z-DEVD-AFC); assay type: cell-based
Experimental: Assay of caspase 3-like activity. Approximately 2×10^6 U2OS stable transfectants, either expressing Fortilin (U2OS.F) or harboring empty expression vector (U2OS.E), both of which have been characterized above, were challenged either with dimethyl sulfoxide (DMSO) (vehicle) or with etoposide at a final concentration of 10 μg/mL for 48 hours. Caspase 3-like activity was then determined as previously described (Mannick et al., 1999). In brief, cytosolic proteins were extracted in hypotonic cell lysis buffer (25 mM HEPES, pH 7.5, 5 mM MgCl2, 5 mM EDTA, 5 mM dithiothreitol, 0.05% phenylmethylsulfonyl fluoride [PMSF]; all from Sigma) by three cycles of freezing and thawing. The protein concentration of samples was determined by using a BioRad Bradford protein assay kit (BioRad). Ten micrograms of cytosolic extracts were added to caspase assay buffer (312.5 mM HEPES, pH 7.5, 31.25% sucrose, 0.3125% CHAPS) with Z-DEVD-AFC as substrates (CalBiochem, San Diego, Calif.). Release of 7-amido-4-(trifluoromethyl)coumarin (AFC) was quantified, after 2 hours of incubation at 37° C. (or, in the case of time course experiment, every 10 minutes), using a Fluoroskan system (Thermo-Labsystems, Helsinki, Finland) set to an excitation value of 355 nm and emission value of 525 nm. The results were expressed as relative fluorescence unit (R.F.U.) per microgram of protein.

[3] = system: p53 transactivation of Bax gene; test: p53 transactivation of Bax gene, p-Bax-RE-Luc luciferase reporter in H1299 cells; assay type: cell-based
Experimental: The ability of Fortilin to interfere with transactivation of the Bax gene by p53 was investigated. Non-small cell lung cancer cell line H1299 cells were transfected with p53-pcDNA3, LacZ-pFLAG, p-Bax-RE-Luc (a plasmid encoding the Luciferase gene under the control of the Bax responsive element) and pFLAG vector encoding Bcl-2, MCL1, Fortilin or truncated Fortilin as indicated in FIG. 6. Twenty-four hours after the transfection, luciferase activity was measured and normalized to the β-galactosidase activity, the latter representing transfection efficiency.
Next, studies were conducted to determine whether the inhibition was dosage dependent. H1299 cells were transfected with p53-pcDNA3, LacZ-pFLAG, p-Bax-RE-Luc and various amount of Fortilin-pFLAG. The total amount of DNA added was adjusted by the addition of empty pFLAG vector. Twenty-four hours after the transfection, luciferase activity was measured and normalized to the β-galactosidase activity.

[4] = target: Bax (Homo sapiens, UniProt Q07812); test: In vitro pull-down assay of Fortilin-HA with Bax; assay type: binding; conditions: in vitro translated proteins, anti-HA pull-down
Bax, sequence (Q07812 whole entry, species assumed): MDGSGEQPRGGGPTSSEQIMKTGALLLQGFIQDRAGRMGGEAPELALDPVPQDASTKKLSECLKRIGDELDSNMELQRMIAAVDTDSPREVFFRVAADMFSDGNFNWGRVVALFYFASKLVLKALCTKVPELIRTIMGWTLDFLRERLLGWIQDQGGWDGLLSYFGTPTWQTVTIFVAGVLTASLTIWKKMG

Question: With “Fortilin: 172 amino acid anti-apoptotic polypeptide (SEQ ID NO:2), overexpressed from expression constructs or used as recombinant/in vitro translated protein” as the substance, how does the “prevention of Etoposide-induced apoptosis (apoptotic index)” value ([1]; HeLa cells overexpressing FLAG-tagged protein, 5 μg/mL etoposide 12 hours) read?
Answer: prevented HeLa cells from undergoing Etoposide-induced apoptosis in a statistically significant fashion; also recorded: as strong an anti-apoptotic effect as that of Bcl-xL and MCL1

Question: And the “apoptotic index versus amount of Fortilin expressed” value ([1]; HeLa cells, various amounts of pFLAG-Fortilin, etoposide challenge)?
Answer: more prominent anti-apoptotic effects

Question: And the “inhibition of caspase-3-like activity, kinetics” value ([2]; U2OS cells, 10 μg/mL etoposide, signals every 10 minutes for 2 hours)?
Answer: significantly inhibited the caspase-3-like activity in U2OS cells at all time points

Question: What about the “inhibition of caspase-3-like activity upon etoposide challenge” value ([2]; U2OS cells, etoposide 10 μg/mL 48 hours, vs empty vector) of the same substance?
Answer: significantly inhibited the caspase-3-like activity in U2OS cells

Question: And the caspase-3-like activity ([2]; U2OS stably expressing Fortilin (U2OS.F), absence of etoposide challenge (DMSO))?
Answer: 283±22.6 R.F.U./μg protein

Question: And the caspase-3-like activity index ([2]; U2OS stably expressing Fortilin (U2OS.F), etoposide 10 μg/mL 48 hours)?
Answer: 713.9±62.6 R.F.U./μg protein

Question: And the “inhibition of p53 transactivation of Bax gene (luciferase normalized to β-galactosidase)” value ([3]; twenty-four hours after transfection)?
Answer: inhibited p53 transactivation of the Bax gene

Question: What about the “inhibitory effect on p53 transactivation of Bax gene versus amount of Fortilin transfected” value ([3]; various amount of Fortilin-pFLAG) of the same substance?
Answer: stronger inhibitory effects on p53 transactivation of the Bax gene; also recorded: larger inhibitory effect on p53 transactivation of Bax gene

Question: What about the “co-immunoprecipitation of Bax with Fortilin in vitro” value [4] of the same substance?
Answer: not
